According to PMC7400446, “Antimicrobial and Antifungal Activity of Rare Substituted 1,2,3-Thiaselenazoles and Corresponding Matched Pair 1,2,3-Dithiazoles” (Antibiotics, 2020):
Converted amounts (≈) assume the structure as drawn.

Legend:
C. neoformans = test system: C. neoformans; design: method as in earlier work; conditions: cited from earlier work
E. faecalis = test system: E. faecalis; design: method as in PMID 19036587, doi:10.1016/0960-894X(96)00062-5, doi:10.1016/0960-894X(96)00423-4, doi:10.1016/S0223-5234(98)80040-8; conditions: cited from earlier work
L. monocytogenes = test system: L. monocytogenes; design: method as in PMID 19036587, doi:10.1016/0960-894X(96)00062-5, doi:10.1016/0960-894X(96)00423-4, doi:10.1016/S0223-5234(98)80040-8; conditions: cited from earlier work
[1] = test system: Staphylococcus aureus, Acinetobacter baumannii, Candida albicans and Cryptococcus neoformans var. grubii; experiment: Initial antimicrobial screen (CO-ADD); type: cell-based; conditions: 10 μM; Active / Inactive
Excerpt: We then screened this series of 1,2,3-dithiazoles and 1,2,3-thiaselenazoles (8−15) against Staphylococcus aureus, Acinetobacter baumannii, Candida albicans and Cryptococcus neoformans var. grubii (Table 1) as part of the Community for Antimicrobial Drug Discovery (CO-ADD) initiative to develop new lead compounds [51]. These represent three distinct classes of microbes. Staphylococcus aureus (ATCC 43300) is a gram-positive bacterium derived from the super bug methicillin-resistant Staphylococcus aureus (MRSA). Acinetobacter baumannii (ATCC 19606) is a gram-negative bacterium hospital-derived infection with very few antibiotics that can treat this pathogen. Candida albicans (ATCC 90028) and Cryptococcus neoformans var. grubii (ATCC 208821) are both opportunistic fungi. These fungal pathogens are particularly dangerous for patients in hospital with immunodeficiencies, undergoing cancer chemotherapy and organ transplantation. These strains are considered by the World Health Organization (WHO) to be the highest priority to develop novel antibiotics for control of these bacteria and fungi. These are some of the most difficult to treat, particularly in a hospital setting where sepsis and pneumonia can quickly overcome the body’s immune system.
The 1,2,3-thiaselenazole analog (13) was potent on against three of the four pathogens with a similar profile to 9a without the activity on A. baumannii.
Antimicrobial screening was performed by CO-ADD (The Community for Antimicrobial Drug Discovery), Australia.
(§1) All bacteria, S. aureus (Strain ATCC 43300, MRSA), E. coli (Strain ATCC 25922, FDA control strain), K. pneumoniae (Strain ATCC 700603, MDR), A. baumannii (Strain ATCC 19606, Type strain), P. aeruginosa (Strain ATCC 27853, Quality control strain), were cultured in Cation-adjusted Mueller Hinton broth (CAMHB) at 37 °C overnight. A sample of each culture was then diluted 40-fold in fresh broth and incubated at 37 °C for 1.5–3 h. The resultant mid-log phase cultures were diluted (CFU/mL measured by OD600), then added to each well of the compound containing plates, giving a cell density of 5 × 10^5 CFU/mL and a total volume of 50 μL. All the plates were covered and incubated at 37 °C for 18 h without shaking.
(§2) Analysis: Inhibition of bacterial growth was determined measuring absorbance at 600 nm (OD600), using a Tecan M1000 Pro monochromator plate reader. The percentage of growth inhibition was calculated for each well, using the negative control (media only) and positive control (bacteria without inhibitors) on the same plate as references. […]
Fungi strains C. albicans (Strain ATCC 90028, CLSI reference) and C. neoformans (Strain ATCC 208821, H99 Type strain), were cultured for 3 days on Yeast Extract-Peptone Dextrose (YPD) agar at 30 °C. A yeast suspension of 1 × 10^6 to 5 × 10^6 CFU/mL (as determined by OD530) was prepared from five colonies. The suspension was subsequently diluted and added to each well of the compound-containing plates giving a final cell density of fungi suspension of 2.5 × 10^3 CFU/mL and a total volume of 50 μL. All plates were covered and incubated at 35 °C for 36 h without shaking. […]

[2] = test system: C. neoformans (Strain ATCC 208821, H99 Type strain); experiment: Antifungal assay, MIC; type: cell-based, Cryptococcus neoformans var. grubii
Procedure: (§3) Fungi strains C. albicans (Strain ATCC 90028, CLSI reference) and C. neoformans (Strain ATCC 208821, H99 Type strain), were cultured for 3 days on Yeast Extract-Peptone Dextrose (YPD) agar at 30 °C. A yeast suspension of 1 × 10^6 to 5 × 10^6 CFU/mL (as determined by OD530) was prepared from five colonies. The suspension was subsequently diluted and added to each well of the compound-containing plates giving a final cell density of fungi suspension of 2.5 × 10^3 CFU/mL and a total volume of 50 μL. All plates were covered and incubated at 35 °C for 36 h without shaking.
(§4) Analysis: Growth inhibition of C. albicans was determined measuring absorbance at 630 nm (OD630), while the growth inhibition of C. neoformans was determined measuring the difference in absorbance between 600 and 570 nm (OD600–570), after the addition of resazurin (0.001% final concentration) and incubation at 35 °C for 2 h. The absorbance was measured using a Biotek Multiflo Synergy HTX plate reader. In both cases, the percentage of growth inhibition was calculated for each well, using the negative control (media only) and positive control (fungi without inhibitors) on the same plate. […] Due to a higher variance in growth and inhibition, a lower threshold was applied to the data for C. neoformans.

haemolytic activity = experiment: Haemolysis assay; type: cell-based
Procedure: Hc10 (concentration at 10% haemolytic activity) was calculated by curve fitting the inhibition values vs. log(concentration) using a Sigmoidal dose-response function, with variable values for bottom, top and slope. The curve fitting is implemented using Pipeline Pilot’s dose-response component (giving similar results to similar tools such as GraphPad’s Prism and IDBS’s XlFit). […] DMax represents the highest percentage inhibition response for all concentrations tested. […] In addition, the value indicates if samples have been active, but curve fitting failed, mostly because only the single highest concentration was active.

[3] = test system: C. albicans (Strain ATCC 90028, CLSI reference); experiment: Antifungal assay, MIC; type: cell-based, Candida albicans
Procedure: as §3, §4

HEK293 cells = experiment: Cytotoxicity assay (resazurin); type: cell-based
Procedure: (§5) HEK293 cells were counted manually in a Neubauer haemocytometer and then plated in the 384-well plates containing the compounds to give a density of 6000 cells/well in a final volume of 50 μL. DMEM supplemented with 10% FBS was used as growth media and the cells were incubated together with the compounds for 20 h at 37 °C in 5% CO2. Analysis: Cytotoxicity (or cell viability) was measured by fluorescence, ex: 560/10 nm, em: 590/10 nm (F560/590), after addition of 5 μL of 25 μgmL^−1 Resazurin (2.3 μgmL^−1 final concentration) and after incubation for further 3h at 37 °C in 5% CO2. The fluorescence intensity was measured using a Tecan M1000 Pro monochromator plate reader, using automatic gain calculation CC50 (concentration at 50% cytotoxicity) were calculated by curve fitting the inhibition values vs. log(concentration) using sigmoidal dose-response function, with variable fitting values for bottom, top and slope.

L1210 = test system: L1210; design: method as in PMID 19036587, PMID 23010140, PMID 28709952; conditions: cited from earlier work
K562 = test system: K562; design: method as in PMID 19036587, PMID 23010140, PMID 28709952; conditions: cited from earlier work
ASCT2 Transport = test system: ASCT2 Transport; design: method as in PMID 19036587, PMID 23010140, PMID 28709952; conditions: cited from earlier work
S. aureus = test system: S. aureus; design: method as in PMID 19036587, doi:10.1016/0960-894X(96)00062-5, doi:10.1016/0960-894X(96)00423-4, doi:10.1016/S0223-5234(98)80040-8; conditions: cited from earlier work
[4] = test system: S. aureus (Strain ATCC 43300, MRSA); experiment: Antibacterial assay, MIC; type: cell-based, Staphylococcus aureus; conditions: Staphylococcus aureus; ATCC 43300 (MRSA); MIC = lowest concentration with inhibition ≥80%
Procedure: as §1, §2

[5] = Cytotoxicity assay (resazurin); type: cell-based; conditions: human; HEK293 cells, 20 h; unit not given in Table 1; read-out: CC50 (concentration at 50% cytotoxicity)
Procedure: as §5

[6] = test system: A. baumannii (Strain ATCC 19606, Type strain); experiment: Antibacterial assay, MIC; type: cell-based, Acinetobacter baumannii; conditions: Acinetobacter baumannii, ATCC19606; ATCC 19606; MIC = lowest concentration with inhibition ≥80%
Procedure: as §1, §2

SMILES: COc1ccc(/N=c2/ssnc2Cl)cc1 [Compound 7]
- MIC C. neoformans (C. neoformans): 8 µg/mL (≈ 30.9 µM)

SMILES: N#Cc1ccccc1/N=c1/ssnc1Cl [Compound 6]
- MIC C. neoformans (C. neoformans): 8 µg/mL (≈ 31.5 µM)

SMILES: COc1ccccc1/N=c1/ssnc1Cl [Compound 5]
- MIC E. faecalis (E. faecalis): 16 µg/mL (≈ 61.8 µM)
- MIC L. monocytogenes (L. monocytogenes): 16 µg/mL (≈ 61.8 µM)

SMILES: c1ccc(-c2c3ssnc-3c3ccccc23)cc1 [Compound 8a]
- Initial Screen [1]: Inactive
- Activity against C. neoformans (in words) [2]: antifungal selective
- Haemolysis (in words) (haemolytic activity): no toxicity or haemolysis
- Activity against C. albicans (in words) [3]: antifungal selective
- Toxicity (in words) (HEK293 cells): no toxicity or haemolysis

SMILES: N#Cc1cnn(CCc2ccccc2)c1/N=c1/ssnc1Cl [Compound 1]
- IC50 (L1210): 5 µM
- IC50 (K562): 3 µM

SMILES: FC(F)(F)Oc1ccc(/N=c2/ssnc2Cl)cc1Cl [Compound 3]
- IC50 (ASCT2 Transport): 8.1 µM

SMILES: Clc1nss/c1=N/c1ccccc1 [Compound 4]
- MIC E. faecalis (E. faecalis): 16 µg/mL (≈ 70 µM)
- MIC L. monocytogenes (L. monocytogenes): 16 µg/mL (≈ 70 µM)
- MIC S. aureus (S. aureus): 16 µg/mL (≈ 70 µM)

SMILES: c1ccc2c(c1)N=C1S[Se]N=C1O2 [Compound 15, Benzo[b][1,2,3]thiaselenazolo[5,4-e][1,4]oxazine]
- Activity against C. neoformans (in words) [2]: recovered some antifungal activity
- MIC ([2]; Cryptococcus neoformans, ATCC208821, ATCC 208821, inhibition ≥70% (method)): 2 µg/mL
- Hc10 (concentration at 10% haemolytic activity) (haemolytic activity; unit not given): >32
- MIC [4]: > 32 µg/mL
- Activity against C. albicans (in words) [3]: recovered some antifungal activity
- MIC ([3]; Candida albicans, ATCC90028, ATCC 90028, inhibition ≥80%): ≤ 0.25 µg/mL
- Toxicity (in words) (HEK293 cells): no toxicity
- CC50 at 20 h [5]: > 32 µg/mL
- MIC [6]: > 32 µg/mL
- melting point: 178 to 180 °C

SMILES: N#Cc1ncn(CCc2ccccc2)c1/N=c1/ssnc1Cl [Compound 2]
- IC50 (L1210): 3 µM
- IC50 (K562): 4 µM
